Source: US20130053407A1, “PYRROLO [3,2-D] PYRIMIDIN-3-YL DERIVATIVES USED AS ACTIVATORS OF AMPK” (GlaxoSmithKline LLC, priority 2010, published 2013)

Tests used:
Human recombinant AMPK = assay: AMPK Enzymatic Assay (Z'Lyte FRET); assay type: biochemical; conditions: AMPK activation, ATP 100 μM, peptide 2 μM, means of at least 2 independent experiments
Description: Human recombinant AMPK (Invitrogen #PV4673 & #PV4675) is used in a FRET assay format (Z'Lyte—Invitrogen). Assay conditions are as follow: ATP 100 μM, peptide (Invitrogen #PR8650) 2 μM, 1% final DMSO in Z'Lyte kinase buffer. Reaction is initiated by addition of 0.2-0.8 ng of AMPK and incubated for 1-hour @ 30° C. A further 1-hour incubation @ 30° C. with the development reagent (Invitrogen #PR5194) is performed. FRET signal is then measured and converted to “% peptide phosphorylation” according to Z′Lyte given calculation procedure. Evaluation of compounds is carried out using concentration-response curves. Final data are expressed in “% activation” calculating the ratio of “% peptide phosphorylation” between compound-condition and basal-condition. […] All data are means of at least 2 independent experiments.

ob/ob and db/db mice = conditions: 8 day AICAR administration; cited from earlier work

Row | SMILES | pEC50 (Human recombinant AMPK) | reduces blood glucose (ob/ob and db/db mice) [%]
1 | Cc1cccc(-c2ccc(-n3c(Cl)cc4[nH]c(=O)n(-c5ccc(C#N)cc5)c(=O)c43)cc2)c1O [4-[6-Chloro-5-(2′-hydroxy-3′-methyl-4-biphenylyl)-2,4-dioxo-1,2,4,5-tetrahydro-3H-pyrrolo[3,2-d]pyrimidin-3-yl]benzonitrile] | 5.4 | –
2 | COc1cccc(-c2ccc(-n3c(Cl)cc4[nH]c(=O)n(-c5cccc(F)c5)c(=O)c43)cc2)c1O [6-Chloro-3-(3-fluorophenyl)-5-[2′-hydroxy-3′-(methyloxy)-4-biphenylyl]-1H-pyrrolo[3,2-d]pyrimidine-2,4(3H,5H)-dione] | 5.3 | –
3 | NC(=O)c1ncn([C@@H]2O[C@H](CO)[C@@H](O)[C@H]2O)c1N [AICAR] | – | 35
